# Data published in patent US11752162B2, “Compounds and compositions for treating solid tumors by intratumoral administration” (Novartis AG, priority 2017, dated 2023).
# What was measured:
# [1] = Wistar rat subcutaneous PK, fixed aluminum hydroxide 5 mg/mL (Example 10); type: in vivo
# Procedure: The pharmacokinetic properties of Compound 15 were examined in naïve male Wistar rats following: • a) a single 200 μL subcutaneous (s.c.) injection of 600 μg of free form Compound 15 in 100 mM Tris buffer pH 7.4; • b) a single 200 μL subcutaneous (s.c.) injection of 50 μg of Compound 15 adsorbed to aluminum hydroxide at a 1:20 ratio (w/w) of Compound 15 to aluminum hydroxide-Suspension G described below; • and • c) a single 200 μL subcutaneous (s.c.) injection of 600 μg of Compound 15 adsorbed to aluminum hydroxide at a 1:1.7 ratio (w/w) of Compound 15 to aluminum hydroxide-Suspension F described below.
# The systemic concentration of Compound 15 was evaluated following a single 200 μL subcutaneous injection of two different dose levels of Compound 15 adsorbed to aluminum hydroxide, where the aluminum hydroxide was at a fixed dose concentration of 5 mg/mL.
# In this study, two groups male Wistar rats (n=3 per group) were injected subcutaneously (s.c.) with either 50 μg or 600 μg of Compound 15 absorbed to aluminum hydroxide. An injection volume of 200 μL of Suspension G and Suspension F was used to obtain 50 and 600 μg of Compound 15 absorbed to aluminum hydroxide, respectively. The injection volume of 200 μL per rat was not normalized to body weights of the rats. As described above the Compound 15/aluminum hydroxide ratio for Suspension F was 1:1.7 w/w, while for Suspension G it was 1:20 w/w.
# Blood samples (˜100 μL each) were taken serially via saphenous bleed from each rat until 168 h post dose (see Table 9 for sampling schedule). Blood samples were centrifuged to separate plasma and the plasma samples were frozen at −20° C. prior to analysis using LC/MS/MS (as described in Example 5) to obtain the systemic concentrations of Compound 15.
# [2] = Adsorption of compounds to aluminum hydroxide in histidine buffer (pH 6.8); type: physicochemical; conditions: histidine buffer pH 6.8, 0.1 mg/mL compound, 37° C. 5 hours
# Procedure: The resulting solution was diluted 10-fold with blank histidine buffer to a final compound concentration of 0.1 mg/mL. Diluted solutions were incubated at 37° C. for 5 hours. The samples were centrifuged at 14,000 rpm for 10 minutes to pellet the insoluble. The supernatant (along with an internal standard) was then evaluated by LC-MS/MS using a ballistic gradient (from 5% CH3CN-0.5% formic acid to 95% CH3CN-1.0% formic acid in 3.5 minutes) on a Waters Atlantis dC18 (50 mm×2.1 mm) column at room temperature against a calibration curve prepared at known compound concentrations ranging from 0.005 to 50 μM. The concentration in the supernatant was calculated as % unbound to aluminum hydroxide compared to control; the % bound to aluminum hydroxide was calculated as 100% minus % unbound.
# [3] = system: MC38 tumors; experiment: Contralateral MC38 colon cancer model, alone or with checkpoint inhibitors; type: in vivo, mouse; conditions: Compound 15 alone, without aluminum hydroxide, 50 μg i.t.
# Procedure: MC38 cells were grown in sterile conditions in a 37° C. incubator with 5% CO2 for two weeks. The cells were cultured in Dulbecco's Modified Eagle's medium (DMEM) media supplemented with 10% FBS, cells were passed every 2-3 days. On the day of injection, cells were harvested (Passage 12) and re-suspended in Hanks' Balanced Salt Solution (HBSS) at a concentration of 2.5×10^6/ml. Cells were Radil tested for mycoplasma and murine viruses.
# For each mouse, 0.25×10^6 cells were implanted with subcutaneously injection into right flank using a 28½ g needle ([…]). After the first implantation on day 3 (0.25×10^6) cells are implanted with a subcutaneous injection into left flank using a 28½ g needle (100 μL injection volume). Tumor sizes were assessed three times a week once tumors were palpable. Tumor sizes were determined by using caliper measurements, with tumor volumes calculated using the formula: (Length×Width×Width)/2.
# Female C57BL/6 mice bearing the MC38 tumors were randomized into 7 groups (n=9 mice per group) 9 days post tumor cell implantation with an average tumor volume range of 69.09-142.25 mm^3, and the separate groups of tumor bearing mice received treatment as shown in Table 17.
# The anti-tumor efficacy of Compound 15 adsorbed to aluminum hydroxide (Alhydrogel®) alone or in combination with checkpoint inhibitors, was determined using a contralateral MC38 colon cancer model. The tumor volume was obtained after two weekly intratumoral injections of Compound 15 adsorbed to aluminum hydroxide (50 μg each) either alone (Group 2), in a double combination with intraperitoneal injection (twice weekly) of an anti-PD-L1 antibody (10 mg/kg) (Group 5), in a double combination with intraperitoneal injection (twice weekly) of an anti-CTLA4 antibody (10 mg/kg) (Group 6), or in a triple combination with intraperitoneal injection (twice weekly) of an anti-PD-L1 antibody (10 mg/kg) and with intraperitoneal injection of an anti-CTLA4 antibody (10 mg/kg) (group 7). For comparison, data was obtained after an intraperitoneal injection (twice weekly) of the anti-PD-L1 antibody (10 mg/kg) alone (Group 3) and after an intraperitoneal injection (twice weekly) of the anti-CTLA4 antibody (10 mg/kg) alone (Group 4). The untreated control data was also obtained (Group 1).
# The anti-tumor efficacy of Compound 15 alone (without aluminum hydroxide (Alhydrogel®)) or in combination with checkpoint inhibitors was determined using a contralateral MC38 colon cancer model. […] In addition, the anti-tumor efficacy of Compound 15 adsorbed to aluminum hydroxide (Alhydrogel®) alone or in a triple combination with checkpoint inhibitors was determined using a contralateral MC38 colon cancer model. […]
# [4] = rat, sc, 600 ug, 600 μg Compound 15 s.c., male Wistar rats, plasma, Table 15 (free compound data from Example 9)
smiles,measurement,setting,value
"Cc1cc(OCCOCCC(F)(F)P(=O)(O)O)ccc1CCc1cnc2c(N)nc3cc(CCC(=O)O)ccc3c2c1 [Compound 15, 3-(5-amino-2-(4-(2-(3,3-difluoro-3-phosphonopropoxy)ethoxy)-2-methylphenethyl)benzo[f][1,7]naphthyridin-8-yl)propanoic acid]",retention of Compound 15 at the local injection site,"[1]; adsorbed onto aluminum hydroxide, following subcutaneous injection, rats",up to 1 week
same,AUC(0-inf),[1]; [4],2560 ng·h/mL
same,Cmax,[1]; [4],3660 ng/mL
same,Tmax,[1]; [4],0.25 h
same,half-life,[1]; [4],2.1 h
same,% Bound,[2],96.0%
same,"difference from the no treatment group, contralateral tumor site",[3],did not show a difference from the no treatment group
same,"difference from the no treatment group, primary injection site",[3],did not show a difference from the no treatment group
